Reference: patent US20020161007A1, “Non-steroidal modulators of estrogen receptors” (priority 2001, published 2002)

What was measured:
[1] = molecular target: T1, estrogen receptor (Rattus norvegicus, UniProt P06211); experiment: Displacement of tritium-labelled estradiol from estrogen receptor-rich uterine cytosol; assay type: binding; details: mean ± SEM
T1 construct: Estrogen receptor-rich cytosol was obtained from the uteri; from tissue; host or cells: uterus of immature Sprague-Dawley rats (cytosol, 100,000 x g supernatant, DCC-treated)
T1 sequence (P06211 1-600): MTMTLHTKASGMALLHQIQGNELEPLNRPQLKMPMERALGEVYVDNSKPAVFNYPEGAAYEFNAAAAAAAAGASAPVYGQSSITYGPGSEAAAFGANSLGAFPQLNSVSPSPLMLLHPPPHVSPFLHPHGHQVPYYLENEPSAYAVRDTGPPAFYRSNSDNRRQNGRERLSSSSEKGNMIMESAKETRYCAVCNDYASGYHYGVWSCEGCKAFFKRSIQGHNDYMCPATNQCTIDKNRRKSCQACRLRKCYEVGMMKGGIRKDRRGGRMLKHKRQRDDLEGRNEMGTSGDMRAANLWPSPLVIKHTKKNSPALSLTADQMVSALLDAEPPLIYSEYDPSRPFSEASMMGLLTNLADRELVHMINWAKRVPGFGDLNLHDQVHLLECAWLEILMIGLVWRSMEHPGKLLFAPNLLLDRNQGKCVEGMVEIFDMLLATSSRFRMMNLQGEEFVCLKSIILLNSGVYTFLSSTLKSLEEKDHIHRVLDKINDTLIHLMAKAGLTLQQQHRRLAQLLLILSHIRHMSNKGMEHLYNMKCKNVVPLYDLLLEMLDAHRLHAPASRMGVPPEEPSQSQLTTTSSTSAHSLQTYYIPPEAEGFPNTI
Method: EXAMPLE 16—Determination of the binding affinity of compounds for estrogen receptor
Binding affinity (Ki value) for the estrogen receptor is measured by the ability of the compound to displace tritium-labelled estradiol from the receptor site.
Procedure Estrogen receptor-rich cytosol was obtained from the uteri of humanely sacrificed Sprague-Dawley immature rats (100-150 g mass). Briefly, the uteri were homogenized in 0.01 M sodium phosphate buffer, pH 7.3, containing 0.15 M NaCl, 0.1% gelatin and 0.01% sodium azide. The homogenate was then centrifuged at 100,000×g, […]. The cytosol thus isolated was pretreated with dextran coated charcoal (DCC on ice) and re-isolated using centrifugation, before freezing at−20° C. for later use. The protein concentration of cytosol samples was determined using a standard Bradford protein assay and an appropriate protein concentration range (150 μg protein in a total volume of 0.14 ml) for assay prepared. The required amounts of tritium-labeled (hot) and non-labeled (cold) estradiol were calculated using standard saturation curve techniques. A fresh buffer solution was prepared (Tris[tris(hydroxymethyl)-aminomethane]buffer-10 mM, pH 7.4, containing 1.5 mM EDTA and 3 mM sodium azide). Displacement testing of the compounds was facilitated through the incubation of a buffered solution of a known concentration of the test compound with hot estradiol solution (specific activity 157 Ci/mmol-final conc. 5 nM/ tube), followed by the addition of estrogen receptor-rich cytosol (150 μg protein). Total and non-specific binding control assays were determined in the absence and presence of 14 μl of a 0.2 mM cold estradiol solution respectively, properly corrected for the presence of ethanol in the test (displacement) samples. Samples were vortexed to ensure homogeneity and refrigerated at […] for 16-20 h. After this time the samples were retreated with DCC on ice and centrifuged for ten min at 3500×g. A 170 μl sample was pipetted from each vial and diluted with 10 ml scintillation fluid (Ecoscint). […] The samples thus prepared were counted for radioactivity by liquid scintillation counting. Binding values were obtained as counts per minute (cpm) and were converted to disintegrations per minute (dpm) and computationally analysed using sigmoidal curve fitting programs EBDA and LIGAND [14] to fit the displacement curves and to calculate binding affinity values (Ki) for the test compounds.
The following table illustrates the relative binding affinity values measured for selected compounds, based on their ability to displace radiolabelled estradiol from estrogen receptor-rich cytosol. Values are expressed as the mean determined±SEM.

[2] = test system: human breast tumor MCF-7 cell line; experiment: MTT antiproliferative assay on human MCF-7 cell line; assay type: cell-based; details: Homo sapiens, MCF7; MTT inhibition of proliferation, mean of triplicate determinations; read-out: IC50 Range
Description: EXAMPLE 14—Determination of the antiproliferative effects on human MCF-7 cell lines.
MTT is a yellow tetrazolium salt which is taken up only by metabolically active cells and subsequently cleaved by mitochondrial dehydrogenases to yield a purple crystalline formazan dye. On solubilisation this purple color may be read spectrophotometrically at 570 nm. The absorbance measured at this wavelength is directly proportional to the amount of viable cells present.
Procedure : The human breast tumor MCF-7 cell line was cultured in Eagles minimum essential medium in a 5% CO2 atmosphere with 10% fetal calf serum. The medium was supplemented with 1% non-essential amino acids. The cells were trypsinized and seeded at a density of 1.5×10^4 into a 96-well plate and incubated at 37° C., 5% CO2 atmosphere for 24 h. […] Control wells contained the equivalent volume of the vehicle ethanol (1% v/v). The culture medium was then removed and the cells washed with 100 μl PBS and 50 μl MTT added, to reach a final concentration of 1 mg/ml MTT added. The cells were incubated for 2 h in darkness at […]. At this point solubilisation was begun through the addition of 200 μl DMSO and the cells maintained at room temperature in darkness for 20 min to ensure thorough color diffusion before reading the absorbance. The absorbance value of control cells (no added compound) was set to 100% cell viability. Graphs of absorbance versus cell density per well were prepared to assess cell viability.

[3] = test system: MCF-7 cells; experiment: FACS (propidium iodide) assay for apoptotic induction in MCF-7 cells; assay type: cell-based, human; details: 50 μM, 16 hours
Method: EXAMPLE 17—Assay for determining apoptotic induction by compounds
Fluorescence Activated Cell Sorting
Procedure Following treatment of MCF-7 cells with apoptotic compounds, the cells were washed three times with PBS before being trypsinised and centrifuged at 300 g for 5 min. They were then resuspended in 200 μl PBS, made up to 2 ml with ice-cold ethanol (70% v/v) and left to sit on ice for at least 1 h to fix them. Approximately 1 h prior to use they were centrifuged at 300 g for 3 min and the supernatant carefully pipeted off. The pellet was resuspended in 800 μl PBS. RNAase (100 μL; 1mg/mL) and 100 μL of the fluorescent dye propidium iodide (PI; 400 μg/mL) which binds DNA were added. The tubes were vortexed and incubated at 37° C. for 30 min. Flow cytometry was performed with a FACS calibur flow cytometer from Becton Dickinson. FACS data was analysed using the programme Cell Quest.

Row | Ki [1] | IC50 [2] | Structure (SMILES) | % Cell cycle phases G1 [3] | % Cell cycle phases G2/M [3] | % Cell cycle phases S [3] | % Cell cycle phases sub-G1 ([3]; sub-G1 apoptotic peak)
1 | 503 ± 98 nM | 20000 to 25000 nM | CC/C(=C(\Cc1ccccc1)c1ccc(OCCN(C)C)cc1)c1ccccc1 [Compound 6, 1-Benzyl-2-phenyl-[(4-dimethyleaminoethoxy)phenyl]but-1-ene] |  |  |  | 
2 | 2390 ± 350 nM | 15000 to 20000 nM | CCC(=C(Cc1ccccc1)c1ccccc1)c1ccc(OCCN2CCCCC2)cc1 [Compound 14, 1-Benzyl-1-phenyl-2-[(4-pipyridinylethoxy)phenyl]but-1-ene] |  |  |  | 
3 | 2480 ± 450 nM | 15000 to 20000 nM | CCC(=C(Cc1ccc(OCCN2CCOCC2)cc1)c1ccccc1)c1ccccc1 [Compound 20] |  |  |  | 

Second part, the compound before the results:

Row | Structure (SMILES) | Ki [1] | IC50 [2] | % Cell cycle phases G1 [3] | % Cell cycle phases G2/M [3] | % Cell cycle phases S [3] | % Cell cycle phases sub-G1 ([3]; sub-G1 apoptotic peak)
4 | CCC(Cc1ccccc1)=C(c1ccccc1)c1ccc(OCCN(C)C)cc1 (racemic) [Compound 1, 2-Benzyl-1-phenyl-1-[4-(dimethylaminoethoxy)phenyl]but-1-ene] | 459 ± 230 nM | 10000 to 15000 nM |  |  |  | 
5 | CCC(Cc1ccccc1)=C(c1ccc(O)cc1)c1ccc(OCCN2CCCC2)cc1 [Compound 25, 4-{2-Benzyl-1-[4-(2-pyrrolidin-1-yl-ethoxy)-phenyl]-but-1-enyl}-phenol] |  | 10 to 100 nM | 51.3% | 21.0% | 7.6% | 20.1%
